For data set [1] the following is noted: s.c., mice; cited from earlier work.
In data set [2] the test system is P. falciparum ATCC 50005 (chloroquine resistant). Nature of the data set: Growth inhibition of chloroquine-resistant P. falciparum in culture (96-well plates, microscopy and flow cytometry). Format: cell-based. The conditions noted are these: chloroquine-resistant strain. The protocol: Numerous experiments were conducted regarding dequalinium compounds and their ability to control the growth of chloroquine-resistant and sensitive strains of P. falciparum malaria parasites. Specifically, two commonly-known strains of P. falciparum were obtained from the American Type Culture Collection (ATCC), namely, ATCC 50005 (chloroquine resistant) and ATCC 50028 (chloroquine sensitive). The methods of culture and culture materials used in the experiments described herein are known in the art and discussed in Trager W. and Jensen, J., "Human Malaria Parasites in Continuous Culture" Science, […] (1976).
Assays for growth inhibition of P. falciparium were performed using the above parasites in standard 96-well test plates. All assays were performed in duplicate. The tests involved the use of a dequalinium chloride salt solution (from the Sigma Company of St. Louis, Mo.--product no. D3768) at concentration levels of 32, 16, 8, 4, 2, 1, and 0 nanograms/ml.
The parasites were permitted to incubate in the test media for 72 hours. At 24 hour intervals, new media and test substances were added, and an aliquot of the incubation mixture was removed for microscopic examination,In addition, the parasites were examined by flow cytometry using the techniques discussed in Makler, M. T., et al., "Thiazone Orange: A New Dye for Plasmodium Species Analysis" Cytometry, 8:568-570 (1987).
The entire experiment was terminated after three days. The data in FIG. 1 clearly illustrates the effectiveness of dequalinium salts against chloroquine-resistant parasites. The "Y" axis in FIG. 1 involves the percentage of erythrocytes in the test media which were infected with viable parasites. The "X" axis involves the concentration of dequalinium chloride used (in nanograms/ml.) At 0 nanograms/ml, parasite growth was extensive, with a % parasite infection of about 17 % after 72 hours.
A general note: Flow cytometry measures light scatter and fluorescence of single cells or particles in a stream.

The subject of data set [3] is Rat Colon Tumor. Conditions: rats, subcutaneous, intraperitoneal, or implant-osmotic pump, cited from earlier work.

Structures can show the parent of a compound that is named as a salt.

One may read the LD50 as the dose expected to kill half of the subjects tested. As to `Cc1cc(N)c2ccccc2[n+]1CCCCCCCCCC[n+]1c(C)cc(N)c2ccccc21` [dequalinium chloride, 1,1'-(1,10-Decanediyl)bis-[4-amino-2-methylquinolinium] salt], the LD50 in data set [1] is recorded as 70 mg/kg. Besides, the minimal effective concentration in data set [2] (Plasmodium falciparum, ATCC50005, read-out: concentration level at and above which parasite growth was strongly inhibited and no viable parasites remained, after 72 hours) was ≥ 0.001 µg/mL. Further, in data set [2] (1.0 nanogram/ml and above), the parasite growth entry is recorded as “strongly inhibited”. Also, the viable parasites remaining result in data set [2] (1.0 nanogram/ml and above, after 72 hours) is given as “no viable parasites remained”. Moreover, the tumor growth inhibition result in data set [3] (1.0 mg/kg) is reported as “significant tumor growth inhibition”. Also, in data set [3] (sublethal dose 1.0 mg/kg), the survival entry is recorded as “all survived”.

These data come from US4946849A, “Method for the treatment of malaria” (Flow Incorporated, priority 1989, dated 1990).
